Results published in patent US7198931B2, “Phosphorylated glyoxalase I and its use” (Vlaams Interuniversitair Instituut voor Biotechnologie VZW, priority 2001, dated 2007).
Where two headings read alike, the source gives them in different places.

Tests used:
Assay type in all cases: cell-based
[1] = tested on: specific MG-derived AGE; experiment: Detection of the specific MG-derived AGE by Western blot with mAb6B, densitometry of the ECL signal
Experimental: L929 cells were seeded 48 hours prior to the experiment. TNF incubations (1000 U/ml) were done in the presence of CHX to synchronize cell death. After TNF incubations (1.5 hours or 2.5 hours), the cells were rinsed three times with ice-cold PBS buffer and cell lysates were prepared in a CHAPS-containing cytosol extraction buffer (Guy et al., 1992). […] To use the antibody sparingly, SDS-PAGE gels were only run over a distance of 5 cm.

[2] = tested on: L929 cells
Experimental: Murine TNF (mTNF) was obtained from Roche Diagnostics and was used at 1000 IU/ml unless indicated otherwise. Propidium iodide (PI) and cycloheximide (CHX) (all from Sigma) were used at concentrations of 30 μM and 50 μg/ml, respectively.
Cell death in L929 was induced by addition of TNF to the cell suspension. Cell death was measured by quantifying PI-positive cells by FACS (FACSCalibur, Becton Dickinson, San Jose, Calif.). The PI dye was excited with an argon-ion laser at 488 nm; PI fluorescence was measured above 590 nm using a long-pass filter. Routinely, 3,000 cells were analyzed. Cell death is expressed as the percentage of PI-positive cells in the total cell population.

[3] = target: T1, glyoxalase I (Mus musculus, UniProt Q9CPU0); experiment: TNF-induced phosphorylation of glyoxalase I (32P labeling, 2-D gels, Western blot with anti-human glyoxalase I antibody)
T1 construct: TNF-induced phosphorylation of endogeneous glyoxalase I in L929 cells; endogenous in cells; host or cells: L929 cells
T1 sequence (Q9CPU0 2-184 limits assumed): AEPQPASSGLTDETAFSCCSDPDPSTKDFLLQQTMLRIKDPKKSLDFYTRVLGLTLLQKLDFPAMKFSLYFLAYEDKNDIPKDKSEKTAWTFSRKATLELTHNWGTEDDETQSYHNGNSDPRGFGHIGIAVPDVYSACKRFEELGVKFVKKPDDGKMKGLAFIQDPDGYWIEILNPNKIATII
Experimental: L929 cells were plated 48 hours prior to the experiment. ^32P labeling was carried out as described in (Guy et al., 1992). TNF treatments (1000 IU/ml, 1.5 hours) were done in the presence of cycloheximide (CHX), to synchronize cell death. To simplify the 2-D phosphoprotein pattern and subsequent computer-assisted analysis, we prepared two subcellular protein fractions. The cytosolic protein fraction, containing soluble cytoplasmic molecules and molecules derived from single-membrane organelles, was obtained as the supernatant from digitonin (0.03%)-permeabilized cells. After rinsing once with excess PBS buffer, the remaining cell fraction was lysed in a CHAPS (2%)-containing buffer as described in (Guy et al., 1992). This lysate was then centrifuged (20,000 g) and the supernatant was used as the organelle fraction; it is enriched for mitochondrial and cytoskeleton-derived proteins.
Isoelectric focusing. […] Protein samples were precipitated with ethanol and redissolved in lysis buffer.
SDS-PAGE. The second dimension (SDS-PAGE) was run on large vertical gels (12.5% acrylamide, Biorad).
Proteins were separated by SDS-PAGE (12.5%) and transferred to a PVDF membrane (Hybond-P, Amersham Pharmacia Biotech). […]

[4] = L929 cells pretreated (BBGD 20 μM; H89 5 μM), after 1.5 hours of TNF treatment
[5] = L929 cells pretreated (BBGD 20 μM; H89 5 μM), after 2.5 hours of TNF treatment

Q: For NC(CCC(=O)NC(CSCc1ccc(Br)cc1)C(=O)NCC(=O)OC1CCCC1)C(=O)OC1CCCC1 (stereo not shown) [BBGD, s-p-bromobenzylglutathione cyclopentyl diester], which “reduction of formation of the specific MG-derived AGE” value (from here on “reduction”) [1, 4] is on record?
A: Its value is 50%.

Q: What about the “reduction” value [1, 5] of the same compound?
A: Its value is 10%.

Q: What about the “increase in TNF-induced cell death (synergistic effect)” value ([2]; inhibitor and TNF added at the same time, 20 μM) of the same compound?
A: The value was 50%.

Q: And the “inhibition of TNF-induced cell death” value ([2]; preincubation 1 hour 10 minutes with inhibitor, 20 μM)?
A: Its value is 60%.

Q: What about the “effect on TNF-induced phosphorylation of GLO1” value ([3]; cells preincubated with the inhibitor for 1 hour 10 minutes, 2-D gels pH 3–10) of the same compound?
A: The value was “inhibits the TNF-induced phosphorylation of GLO1”.

Q: Which results are given for O=CC[C@@H](O)[C@H](O)[C@H](O)CO [2-deoxyglucose]?
A: inhibition of formation of the specific MG-derived AGE ([1]; TNF 1000 U/ml + CHX, 2.5 hours, 2-deoxyglucose 2:1 ratio to glucose, given with TNF): 65%; inhibition of TNF-induced cell death ([2]; 2-deoxyglucose 2:1 ratio to glucose): 65%

Q: O=S(=O)(NCCNC/C=C/c1ccc(Br)cc1)c1cccc2cnccc12 [H89] was tested. Which “reduction” value [1, 4] did it give?
A: Its value is 70%.

Q: And the “reduction” value [1, 5]?
A: Its value is 20%.

Q: What about the “effect on TNF-induced cell death” value ([2]; pretreatment 2 hours, 1 μM) of the same compound?
A: The value was “inhibitory effect”.

Q: What about the “inhibition of TNF-induced cell death” value ([2]; pretreatment 2 hours, 5 μM) of the same compound?
A: The value was greater than 50%.

Q: What about the “effect on induction of the more acidic (phosphorylated) isoform of glyoxalase I by TNF” value ([3]; L929 cells, pretreatment, 5 μM) of the same compound?
A: Its value is “completely abolished”.

Q: Which “effect of exogeneously added MG on TNF-induced cell death” value ([2]; 5.5 hours incubation with TNF and methylglyoxal, concentration-dependent) does the source give for CC(=O)C=O [MG, methylglyoxal] here?
A: Its value is “strongly synergistic”.

Q: With N=C(N)NN [aminoguanidine] as the compound, how does the “inhibition of TNF-induced cell death” value ([2]; 16 hours TNF 20 U/ml, 400 μM) read?
A: Its value is 15%.

Q: What about the “maximum inhibition of TNF-induced cell death” value ([2]; 16 hours TNF 20 U/ml, 600 or 800 μM) of the same compound?
A: The value was 25%.

Q: How did the “reduction” value ([1]; TNF 1000 U/ml + CHX, 2.5 hours, BHA 100 μM given 0.5 hour after TNF) turn out when COc1ccc(O)c(C(C)(C)C)c1 [BHA, butylated hydroxyanisole] was run?
A: The value was 65%.
